US20170166558A1, “O-GLCNAC TRANSFERASE (OGT) INHIBITORS AND USES THEREOF” (President and Fellows of Harvard College, priority 2014, published 2017)

Experiments:
[1] = test system: CHO, HEK-293, HeLa and D283-Med cells; experiment: Immunoblotting of global O-GlcNAcylation in various mammalian cell types; format: cell-based; details: 50 μM, 24 hours
Protocol: (§1) In vivo inhibition of glycosylation: For all immunoblotting experiments, CHO-K1 (CHO) cells were grown in F12-K media supplemented with 10% FBS and antibiotics at 37° C. in a 5% CO2 incubator. Cells were treated by adding indicated inhibitor in DMSO vehicle (0.5% final vehicle concentration) upon reaching 70% confluence. After indicated treatment length, cells were harvested by aspirating growth media and washing with ice cold 1× PBS. Cells were subsequently lysed in boiling 1% SDS/20 mM HEPES 7.9. After cooling to room temperature, 1 mM PMSF, 10 μM PUGNAC, 10 μM TMG and 1× Complete protease inhibitor cocktail were added to the solution. The mixture was sonicated and then subjected to a 5 minute incubation at 95° C. The samples were centrifuged for 15 minutes at 20,000×g and the supernatant was collected and the total protein was measured by BCA assay (BIO-RAD).
The sample was separated by SDS-PAGE (Bio-Rad 4-15%, Cat: 345-0028), transferred to a nitrocellulose membrane (iBlot, Invitrogen) and probed with the indicated antibody. Tyipcally, membranes were blocked with 4% BSA in 1× TBS+0.04% tween-20 for 1 hour before incubating with antibody (typically diluted 1:1000 in 4% BSA inlx TBS+0.04% tween-20) overnight at 4° C. […]

[2] = test system: cell surface glycans of CHO cells; experiment: Lectin blots of cell surface glycans of CHO cells; format: cell-based, Chinese hamster; details: 50 μM, 24 hours
Protocol: Lectin blots were performed with the CHO-K1 cell lysate as prepared above. […] The biotin label on the lectins was visualized with incubation with Streptavidin-HRP (Pierce) followed by ECL detection and imaging.

OGT in CHO cells [3] = experiment: Markers of OGT inhibition in CHO cells (Nup62 mass shift, OGA levels, H2B-S112 O-GlcNAc); format: cell-based, Chinese hamster
Protocol: as §1
(§2) The sample was separated by SDS-PAGE (Bio-Rad 4-15%, Cat: 345-0028), transferred to a nitrocellulose membrane (iBlot, Invitrogen) and probed with the indicated antibody. Tyipcally, membranes were blocked with 4% BSA in 1× TBS+0.04% tween-20 for 1 hour before incubating with antibody (typically diluted 1:1000 in 4% BSA inlx TBS+0.04% tween-20) overnight at 4° C. Membranes were then washed three times with 1× TBS+0.04% tween-20 and incubated with secondary antibody (typically diluted 1:5000 in 4% BSA in 1× TBS+0.04% tween-20) for 1 hour at room temperature. Lastly, membranes were washed 3× with 1× TBS+0.04% tween-20 and imaged with ECL. D283-Med cells were treated as above but grown in F12-K media supplemented with 10% FBS and antibiotics. HEK, HeLa and LNCaP cells were treated as above but grown in RPMI media supplemented with 10% FBS and antibiotics.

OGT in CHO cells [4] = experiment: Immunoblotting of global O-GlcNAcylation (RL2) in CHO cells; format: cell-based, Chinese hamster
Protocol: as §1, §2

For `CC(=O)N[C@@H]1[C@@H](OC(C)=O)[C@H](OC(C)=O)[C@@H](COC(C)=O)S[C@@H]1OC(C)=O` [Ac4-5SGlcNAc, reference compound], the “Global O-GlcNAc levels in four cell lines” value [1] was “reduce global O-GlcNAc levels in all four lines examined”, the “Changes in bands detected by ConA, PHA-L, ECL, GSL-I, PNA or DBA” value [2] was “minimal changes” and the “Changes in glycans detected by Jacalin, PHA-E and LCA” value [2] was “dramatic changes”. The “Cellular OGA levels” value (OGT in CHO cells [3]) was “reduced cellular OGA”, the “Onset of reduction of global O-GlcNAcylation” value (OGT in CHO cells [4]; 50 μM, 8-hour time course) was “only at four hours” and the “Effect on global O-GlcNAcylation” value (OGT in CHO cells [4]; 24 hours, up to 50 μM) was “reduced global O-GlcNAcylation to a greater extent than OSMI-1”.
